Values joined by “and” are separate entries in the source; they are usually repeats but may differ in a detail not shown here. Equal values may be shown once. Read-outs that look alike come from different tables or passages of the source.
How the values were obtained:
Format in all cases: cell-based
[1] = system: drug-resistant HIV-1 in PBMC; experiment: microbe, parasite or virus in culture; conditions: PBMC; for EC50: Human immunodeficiency virus 1, PBMC
[2] = system: drug-resistant HIV-1 in MT-2; experiment: microbe, parasite or virus in culture; conditions: for Fold-resistance: MT-2
[3] = system: drug-resistant HIV-1 in MT-4; experiment: microbe, parasite or virus in culture
[4] = system: HIV-1 replication in human PBM cells; experiment: microbe, parasite or virus in culture
Experimental: Cells and viruses. […] Antimicrobial Agents Chemother 1992;36(11): 2423-2431.
Cell pellets were washed, centrifuged, lysed and the proviral DNA extracted as previously described. Cytotoxicity of the compounds was determined using the Promega Cell Titer 96 dye uptake assay (Madison, Wis.) in 1-2 day PHA-stimulated PBM cells after 5 days in culture. The median effective concentration (EC50) and inhibitory concentration (IC50) were derived from the computer-generated median effect plot of the dose-effect data, as described previously.

[5] = system: recombinant HIV-1 virus isolates
Description: The aim of the study was to determine the potency of the inhibitory effect of a new generation of NRTIs on Multi Drug Resistant isolates and to compare it with their effect on wild-type HIV-1 isolates. All recombinant viruses were taken from the VIRCO repository of phenotypically and genotypically characterized virus isolates. Hirsch et al. Antiretroviral Drug Resistance Testing in Adults with HIV Infection. JAMA; 1998: 79(24) 1984-1991. See also Pauwels et al. Comprehensive HIV drug Resistance monitoring using rapid, high-throughput phenotypic and genotypic assays with correlative data analysis. Antiviral Therapy, 1998: 3: 35 Abstract 51.
Phenotypic drug susceptibility determination of recombinant virus isolates is described in Hertogs et al. A Rapid Method for Simultaneous Detection of Phentypic Resistance to Inhibitors of Protease and Reverse Transcriptase in Recombinant HIV-1 Isolates from Patients Treated with Antiretroviral Drugs. Antimicrob. Agents Chemother. 1998; 42(2): 269-276. The basic principle of the Antivirogram® technology is the construction of chimeric HIV-1 strains composed of the protease (PR) and reverse transcriptase (RT) gene sequences which are isolated and amplified from patient viral RNA. Amplicons are subsequently transfected into CD4+T cells together with a standard laboratory isogenic (HXB2) HIV-1 DNA construct from which the PR/RT gene sequences were deleted. After homologous recombination, new viruses whose diversity reflects the original population amplified from the plasma are produced at high level from these cells.
The virus infectivity (CCID50) is determined by an end-point dilution method. The titer is calculated from the degree of infection, measured by the intensity of reporter-gene signal as generated by serial dilutions of the virus shock. The chimeric (clinical isolates and wild-type reference) viruses are then analyzed for their phenotypic sensitivity (i.e. susceptibility) to the different PR and RT-inhibitors in an automated reporter gene-based assay using serial dilutions of the compound. The standardisation of the Antivirogram®n assay allows for simultaneous testing of all clinically approved drugs in one 384-well microtiter plate. The experimental drugs are included in separate plates. Each plate contains multiple replicates of mock-infected wells, virus-infection control wells and blank (medium-only) well. All plates are tested in duplicate. 50% Inhibitory concentrations are calculated based on reporter signals obtained through optical reading of 384-well plates containing serial dilutions of compounds, a normalised quantity of virus and by taking into account all relevant control wells. Approval (or not) is done according to critical ranges and settings as described in the corresponding VIRCO Standard Operating Procedure.
A more detailed description of the protocol is as follows. Samples were stored frozen. […] To confirm the genotypic pattern, genotyping (ABI-sequencing) was performed after recombination and culture of the laboratory strains by analysis of cell viability, calculation of results (dose-response curves, IC50 values), and reporting of data.

[6] = system: drug-resistant HIV-1 in HeLa HT4-6C; experiment: microbe, parasite or virus in culture; conditions: for EC50: Human immunodeficiency virus 1, HeLa
[7] = HIV-1 (A012D:M41L?/D67N/K70R/T215F/K219Q)
[8] = clinical isolate (pre) prior to long-term ZDV monotherapy, row HIV-1 (A012D), read-out: Untreated EC50
[9] = clinical isolate HIV-1 (A012D:M41L?/D67N/K70R/T215F/K219Q), read-out: Selected Varient EC50
[10] = Human immunodeficiency virus 1, PBMC, 144 h

Cc1cn([C@H]2C[C@H](N=[N+]=[N-])[C@@H](CO)O2)c(=O)[nH]c1=O [AZT, 3′-azido-3′-deoxythymidine]
Fold-resistance ([1]; 1 (T215Y/M41L)): 11 | Fold-resistance ([1]; (M184V/T215Y)): 5.8 | Fold-resistance [1, 7]: 240 | Fold-resistance ([1]; HIV-1 (D67N/K70R/T215Y/K219Q)): 9 | Fold-resistance ([1]; HIV-1 (K65R)): 2 | Fold-resistance ([1]; HIV-1 (L74V)): 0.8 | Fold-resistance ([1]; HIV-1 (M184V)): 0.8 | Fold-resistance ([1]; HIV-1 (T215Y)): 2.5 | EC50 [1, 8]: 0.001 µM | EC50 [1, 9]: 0.24 µM | EC50 ([1]; molecular clone 1 (T215Y/M41L), read-out: Selected Varient EC50): 0.042 µM | EC50 ([1]; molecular clone (M184V/T215Y), read-out: Selected Varient EC50): 0.023 µM | EC50 ([1]; molecular clone HIV-1 (D67N/K70R/T215Y/K219Q), read-out: Selected Varient EC50): 0.036 µM | EC50 ([1]; molecular clone HIV-1 (K65R), read-out: Selected Varient EC50): 0.008 µM | EC50 ([1]; molecular clone HIV-1 (L74V), read-out: Selected Varient EC50): 0.003 µM | EC50 ([1]; molecular clone HIV-1 (M184V), read-out: Selected Varient EC50): 0.003 µM | EC50 ([1]; molecular clone HIV-1 (T215Y), read-out: Selected Varient EC50): 0.01 µM | EC50 ([1]; parent strain HIV-1 (xxLAI), row 1 (T215Y/M41L), read-out: Untreated EC50): 0.004 µM | EC50 ([1]; parent strain HIV-1 (xxLAI), row (M184V/T215Y), read-out: Untreated EC50): 0.004 µM | EC50 ([1]; parent strain HIV-1 (xxLAI), row HIV-1 (D67N/K70R/T215Y/K219Q), read-out: Untreated EC50): 0.004 µM | EC50 ([1]; parent strain HIV-1 (xxLAI), row HIV-1 (K65R), read-out: Untreated EC50): 0.004 µM | EC50 ([1]; parent strain HIV-1 (xxLAI), row HIV-1 (L74V), read-out: Untreated EC50): 0.004 µM | EC50 ([1]; parent strain HIV-1 (xxLAI), row HIV-1 (M184V), read-out: Untreated EC50): 0.004 µM | EC50 ([1]; parent strain HIV-1 (xxLAI), row HIV-1 (T215Y), read-out: Untreated EC50): 0.004 µM | Fold-resistance ([2]; HIV-1 (D67N/K70R/M184V/T215Y/K219Q)): 5 | Fold-resistance ([2]; HIV-1 (D67N/K70R/T215Y/K219Q)): 33 | Fold-resistance ([2]; HIV-1 (M41L/D67N/M184V/H208Y/L210W/R211K/L214F/T215Y)): >550 | Fold-resistance ([2]; HlV-1 (M184V)): 1.5 | EC50 ([2]; Human immunodeficiency virus 1, MT2, read-out: Untreated EC50): 0.006 µM | Fold-resistance ([3]; HIV-1 (A-161)): 60 | Fold-resistance ([3]; HIV-1 (C-246)): 35 | Fold-resistance ([3]; HIV-1 (G-68)): 33 | Fold-resistance ([3]; HIV-1 (R-102)): 60 | Fold-resistance ([3]; HIV-1 (X-78)): 55 | EC50 ([3]; Human immunodeficiency virus 1, MT4, clinical isolate (pre) prior to long-term ZDV monotherapy, row HIV-1 (A-161), read-out: Untreated EC50): 0.02 µM | EC50 ([3]; Human immunodeficiency virus 1, MT4, clinical isolate (pre) prior to long-term ZDV monotherapy, row HIV-1 (C-246), read-out: Untreated EC50): 0.02 µM | EC50 ([3]; Human immunodeficiency virus 1, MT4, clinical isolate (pre) prior to long-term ZDV monotherapy, row HIV-1 (G-68), read-out: Untreated EC50): 0.02 µM | EC50 ([3]; Human immunodeficiency virus 1, MT4, clinical isolate (pre) prior to long-term ZDV monotherapy, row HIV-1 (R-102), read-out: Untreated EC50): 0.02 µM | EC50 ([3]; Human immunodeficiency virus 1, MT4, clinical isolate (pre) prior to long-term ZDV monotherapy, row HIV-1 (X-78), read-out: Untreated EC50): 0.02 µM | EC50 ([3]; Human immunodeficiency virus 1, MT4, clinical isolate HIV-1 (A-161), long-term ZDV monotherapy, read-out: Selected Varient EC50): 1.2 µM | EC50 ([3]; Human immunodeficiency virus 1, MT4, clinical isolate HIV-1 (C-246), long-term ZDV monotherapy, read-out: Selected Varient EC50): 0.7 µM | EC50 ([3]; Human immunodeficiency virus 1, MT4, clinical isolate HIV-1 (G-68), long-term ZDV monotherapy, read-out: Selected Varient EC50): 0.65 µM | EC50 ([3]; Human immunodeficiency virus 1, MT4, clinical isolate HIV-1 (R-102), long-term ZDV monotherapy, read-out: Selected Varient EC50): 1.2 µM | EC50 ([3]; Human immunodeficiency virus 1, MT4, clinical isolate HIV-1 (X-78), long-term ZDV monotherapy, read-out: Selected Varient EC50): 1.1 µM | EC90 [4]: 0.021 µM and 0.014 µM | EC90 ([4]; Human immunodeficiency virus 1, PBMC): 0.013 µM | inhibition at 0.1 µM [4, 10]: -12.9% | inhibition at 1 µM [4, 10]: 67.6% | inhibition at 10 µM [4, 10]: 83.2% | inhibition at 100 µM [4, 10]: 98.2% | fold Resistance ([5]; RT genotype D67D/N, K70R, M184V, G333E): 0.9 | fold Resistance ([5]; RT genotype D67N, K70R, K219Q/K, 181C/Y): 12 | fold Resistance ([5]; RT genotype K70R, K219Q): 5 | fold Resistance ([5]; RT genotype M41L, D67N, K70R, K103N, L210W, T215Y, K219N/K): >36 | fold Resistance ([5]; RT genotype M41L, L210L, T215Y, Y181C/Y, M184M/V): >36 | fold Resistance ([5]; RT genotype M41L, L210W, T215Y): 24 | fold Resistance ([5]; RT genotype M41L, T69S-V-T, L210W, T215Y, G333E): >65 | fold Resistance ([5]; RT genotype M41L, T215Y, M184V): 5.5 | fold Resistance ([5]; RT genotype T69G, Q151M, M184V/M): >65 | fold Resistance ([5]; RT genotype T69I, K70R, Q151M, M184V): >65 | fold Resistance ([5]; RT genotype T69S-E, M184I, T215Y): >65 | fold Resistance ([5]; RT genotype T215Y): 13.5 | fold Resistance ([5]; recombinant isolate, RT genotype K70R): 0.7 | Fold-resistance [6, 7]: 200 | Fold-resistance ([6]; HIV-1 (A018C:D67N/K70R/T215Y/K219Q)): 400 | Fold-resistance ([6]; HIV-1 (A036DD:M41L/D67N/K70R/T215Y)): 800 | Fold-resistance ([6]; HIV-1 (P022C:M41L?/D67N/K70R/T215F/K219Q)): 187 | Fold-resistance ([6]; HIV-1 (P026B:M41L?/D67N/K70R/T215Y)): 280 | EC50 [6, 8]: 0.01 µM | EC50 ([6]; clinical isolate (pre) prior to long-term ZDV monotherapy, row HIV-1 (A018C), read-out: Untreated EC50): 0.01 µM | EC50 ([6]; clinical isolate (pre) prior to long-term ZDV monotherapy, row HIV-1 (A036DD), read-out: Untreated EC50): 0.007 µM | EC50 ([6]; clinical isolate (pre) prior to long-term ZDV monotherapy, row HIV-1 (P022C), read-out: Untreated EC50): 0.03 µM | EC50 ([6]; clinical isolate (pre) prior to long-term ZDV monotherapy, row HIV-1 (P026B), read-out: Untreated EC50): 0.01 µM | EC50 [6, 9]: 2 µM | EC50 ([6]; clinical isolate HIV-1 (A018C:D67N/K70R/T215Y/K219Q), read-out: Selected Varient EC50): 4 µM | EC50 ([6]; clinical isolate HIV-1 (A036DD:M41L/D67N/K70R/T215Y), read-out: Selected Varient EC50): 5.5 µM | EC50 ([6]; clinical isolate HIV-1 (P022C:M41L?/D67N/K70R/T215F/K219Q), read-out: Selected Varient EC50): 5.6 µM | EC50 ([6]; clinical isolate HIV-1 (P026B:M41L?/D67N/K70R/T215Y), read-out: Selected Varient EC50): 2.8 µM

Reference: patent publication US6602664B2 (priority 1998, dated 2003)
